Like-named read-outs stand apart in the source and are kept apart here.
Target: Phi29-type DNA polymerase (Bacillus phage phi29, UniProt P03680)
Experiment: Dissociation constants of nucleotides with polymerase by fluorescence assays
Format: binding
Conditions: for Kd: fluorescence assays, natural and unincorporable nucleotides
Text: Disclosed herein is a determination of a number of enzymatic parameters including substrate binding and dissociation constants (examples in Table 1) under a variety of conditions and with a variety of nucleotide analogs (NTPs, N6Ps, tagged N6Ps, α-thio and α,β-methylene nucleotide polyphosphates). In addition to these compounds, disclosed herein are fluorescent nucleotide analogs and unincorporable (α-thio) nucleotides that were designed and synthesized for the polymerase tests to develop new Nanopore-SBS approaches as described below.

Phi29-type DNA polymerase, sequence (P03680 whole entry): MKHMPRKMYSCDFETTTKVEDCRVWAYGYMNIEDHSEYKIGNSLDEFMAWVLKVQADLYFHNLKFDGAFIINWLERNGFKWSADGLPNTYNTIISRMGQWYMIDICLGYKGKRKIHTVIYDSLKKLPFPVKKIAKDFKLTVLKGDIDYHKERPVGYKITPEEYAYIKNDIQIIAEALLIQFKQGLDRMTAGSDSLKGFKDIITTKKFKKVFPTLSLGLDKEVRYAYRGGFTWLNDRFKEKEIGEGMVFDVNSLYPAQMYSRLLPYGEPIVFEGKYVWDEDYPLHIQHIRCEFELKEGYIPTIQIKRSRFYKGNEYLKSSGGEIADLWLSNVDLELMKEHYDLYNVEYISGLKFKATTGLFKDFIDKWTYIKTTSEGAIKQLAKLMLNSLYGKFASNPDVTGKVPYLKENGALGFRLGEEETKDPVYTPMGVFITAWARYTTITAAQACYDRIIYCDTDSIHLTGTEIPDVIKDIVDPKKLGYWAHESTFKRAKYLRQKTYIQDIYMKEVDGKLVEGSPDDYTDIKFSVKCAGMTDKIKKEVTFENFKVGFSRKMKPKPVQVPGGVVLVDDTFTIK

Nc1nc2c(ncn2C2CC(O)C(COP(=O)(O)OP(=O)(O)OP(=O)(O)O)O2)c(=O)[nH]1 (stereo not drawn) [dGTP, reference compound]
Kd: 6 nM

Nc1ccn(C2CC(O)C(COP(=O)(O)OP(=O)(O)OP(=O)(O)O)O2)c(=O)n1 (stereo not drawn) [dCTP, reference compound]
Kd: ~5 nM

Nc1ccn(C2CC(O)C(COP(=O)(O)CP(=O)(O)OP(=O)(O)O)O2)c(=O)n1 (stereo not drawn) [dCp-CH2-pp, reference compound]
Kd: 25000 nM | binding to the polymerase in the ternary complex (in words, compared with the other nucleotides): do not bind as tightly

αS-dG6P-N3 [αS-dG6P-N3 (Rp-isomer)]
Kd (read-out: KD): 670 nM

Nc1ccn(C2CC(O)C(COP(O)(=S)OP(=O)(O)OP(=O)(O)O)O2)c(=O)n1 (stereo not drawn) [2′-dCTP-αS (Sp-isomer), 2′-dCTP-αS]
Kd: 1 nM

Nc1ccn(C2CC(O)C(COP(O)(=S)OP(=O)(O)OP(=O)(O)O)O2)c(=O)n1 (stereo not drawn) [2′-dCTP-αS (Rp-isomer), 2′-dCTP-αS]
Kd: 750 nM

Nc1nc2c(ncn2C2CC(O)C(COP(O)(=S)OP(=O)(O)OP(=O)(O)O)O2)c(=O)[nH]1 (stereo not drawn) [2′-dGTP-αS (Rp-isomer), 2′-dGTP-αS]
Kd: 910 nM

Nc1nc2c(ncn2C2CC(O)C(COP(O)(=S)OP(=O)(O)OP(=O)(O)O)O2)c(=O)[nH]1 (stereo not drawn) [2′-dGTP-αS (Sp-isomer), 2′-dGTP-αS]
Kd: 6 nM

— patent US12467085B2, “High accuracy nanopore-based single molecule sequencing by synthesis with tagged nucleotides” (priority 2019, dated 2025)
